Our source for the Selectivity ratio and IC50 values is ChEMBL document CHEMBL1139698, “Potent, selective pyrimidinetrione-based inhibitors of MMP-13” (Bioorg Med Chem Lett, 2006).

Test [1] is filed under the species Homo sapiens. Briefly: Selectivity for MMP13 over MMP2.
The species named for test [2] is Homo sapiens. The test is described as follows: Selectivity for MMP13 over MMP8.
The species entered for test [3] is Homo sapiens. The test is described as follows: Selectivity for MMP13 over MMP12.
In another test the target is Collagenase 3 (Homo sapiens, UniProt P45452).

In the case of `CCOCCC1(Oc2ccc(Oc3ccc(-c4nc(-c5ccc(C#N)cc5)co4)cc3)cc2)C(=O)NC(=O)NC1=O`, the figures for the Selectivity ratio in the test filed under Homo sapiens [1], in the test filed under Homo sapiens [2] and in the test filed under Homo sapiens [3] were 429, 233 and 373, respectively. On Collagenase 3, the concentration for half-maximal inhibition (IC50) (usually the midpoint of a concentration-inhibition curve) came out at 0.45 nM.

For the molecule `CCOCCC1(Oc2ccc(Oc3ccc(C(=O)NCc4ccccc4)cc3)cc2)C(=O)NC(=O)NC1=O`, the Selectivity ratio in the test filed under Homo sapiens [1] came out at 21; in the test listed under Homo sapiens [3] it was 27. This molecule registered an IC50 on Collagenase 3 of 8 nM.

As for `CCOCCC1(Oc2ccc(Oc3ccc(-c4cc(-c5ccccc5)no4)cc3)cc2)C(=O)NC(=O)NC1=O`, the figures for the Selectivity ratio in the test listed under Homo sapiens [1], in the test filed under Homo sapiens [2] and in the test listed under Homo sapiens [3] were 11, 571 and 38, respectively. Besides, on Collagenase 3, inhibition was half-maximal at 1.6 nM (IC50).

With `CCOCCC1(Oc2ccc(Oc3ccc(C(=O)NCc4cccnc4)cc3)cc2)C(=O)NC(=O)NC1=O`, the Selectivity ratio in the test listed under Homo sapiens [1] was found to be 26; in the test filed under Homo sapiens [3], 27. Moreover, the concentration for half-maximal inhibition (IC50) against Collagenase 3 was 2.6 nM.

Regarding `CCOCCC1(Oc2ccc(Oc3ccc(-c4nc(-c5ccncc5)no4)cc3)cc2)C(=O)NC(=O)NC1=O`, the Selectivity ratio in the test listed under Homo sapiens [1] amounted to 291; in the test filed under Homo sapiens [2], 555; in the test filed under Homo sapiens [3], 232. Moreover, the IC50 on Collagenase 3 was 0.54 nM.

`CCOCCC1(Oc2ccc(Oc3ccc(-c4nc(-c5ccccc5F)no4)cc3)cc2)C(=O)NC(=O)NC1=O`: the results for the Selectivity ratio in the test filed under Homo sapiens [1], in the test filed under Homo sapiens [2] and in the test filed under Homo sapiens [3] were 102, 167 and 176, respectively. The molecule further returned an IC50 at Collagenase 3 of 3.3 nM.

As to `CCOCCC1(Oc2ccc(Oc3ccc(-c4noc(-c5ccccc5)n4)cc3)cc2)C(=O)NC(=O)NC1=O`, the Selectivity ratio worked out at 27 in the test listed under Homo sapiens [1] and 37 in the test listed under Homo sapiens [3]. Also, at Collagenase 3, the IC50 was 0.84 nM.

Take `CCOCCC1(Oc2ccc(Oc3ccc(-c4nc(-c5cccc(F)c5)co4)cc3)cc2)C(=O)NC(=O)NC1=O`: the values for the Selectivity ratio in the test listed under Homo sapiens [1], in the test filed under Homo sapiens [2] and in the test listed under Homo sapiens [3] were 292, 133 and 906, respectively. The molecule further showed an IC50 at Collagenase 3 of 0.36 nM.

With `CCOCCC1(Oc2ccc(Oc3ccc(-c4nc(-c5ccc(F)cc5)no4)cc3)cc2)C(=O)NC(=O)NC1=O`, the results for the Selectivity ratio in the test listed under Homo sapiens [1], in the test listed under Homo sapiens [2] and in the test listed under Homo sapiens [3] were 80, 210 and 114, respectively. On Collagenase 3, this molecule registered a half-maximal inhibitory concentration (IC50) of 6.1 nM.

For `CCOCCC1(Oc2ccc(Oc3ccc(-c4nc(-c5cccnc5)no4)cc3)cc2)C(=O)NC(=O)NC1=O`, the Selectivity ratio in the test listed under Homo sapiens [1] came out at 134; in the test filed under Homo sapiens [2], 320; in the test listed under Homo sapiens [3], 504. The molecule further yielded a half-inhibitory concentration (IC50) at Collagenase 3 of 2 nM.

`COCCC1(Oc2ccc(Oc3ccc(-c4nc(-c5cccc(C#N)c5)co4)cc3)cc2)C(=O)NC(=O)NC1=O`: the Selectivity ratio turned out to be 29 in the test filed under Homo sapiens [1], 140 in the test filed under Homo sapiens [2] and 181 in the test listed under Homo sapiens [3]. This molecule came in with an IC50 against Collagenase 3 of 0.63 nM.

Consider `CCOCCC1(Oc2ccc(Oc3ccc(C(=O)NCc4cccc(F)c4)cc3)cc2)C(=O)NC(=O)NC1=O`, for which the Selectivity ratio in the test filed under Homo sapiens [1] was 74; in the test listed under Homo sapiens [2] it was 25; in the test filed under Homo sapiens [3], 120. Moreover, the concentration for half-maximal inhibition (IC50) against Collagenase 3 stood at 0.85 nM.

For `COCCC1(Oc2ccc(Oc3ccc(-c4nc(-c5ccccc5F)co4)cc3)cc2)C(=O)NC(=O)NC1=O`, the figures for the Selectivity ratio in the test listed under Homo sapiens [1], in the test filed under Homo sapiens [2] and in the test filed under Homo sapiens [3] were 288, 149 and 605, respectively. Further, the IC50 against Collagenase 3 is 1.4 nM.

`CCOCCC1(Oc2ccc(Oc3ccc(-c4nc(-c5ccncc5)co4)cc3)cc2)C(=O)NC(=O)NC1=O`: the Selectivity ratio was determined as 70 in the test listed under Homo sapiens [1], 250 in the test filed under Homo sapiens [2] and 530 in the test listed under Homo sapiens [3]. On Collagenase 3, the 50% inhibitory concentration (IC50) worked out at 0.4 nM.

With `CCOCCC1(Oc2ccc(Oc3ccc(-c4nc(-c5ccccc5C#N)co4)cc3)cc2)C(=O)NC(=O)NC1=O`, the results for the Selectivity ratio in the test listed under Homo sapiens [1], in the test listed under Homo sapiens [2] and in the test listed under Homo sapiens [3] were 142, 569 and 178, respectively. The half-maximal inhibitory concentration (IC50) on Collagenase 3 worked out at 0.88 nM.

Take `CCOCCC1(Oc2ccc(Oc3ccc(-c4ncc(-c5ccccc5)o4)cc3)cc2)C(=O)NC(=O)NC1=O`: the Selectivity ratio stood at 144 in the test filed under Homo sapiens [1], 43 in the test listed under Homo sapiens [2] and 103 in the test filed under Homo sapiens [3]. The molecule also registered a 50% inhibitory concentration (IC50) at Collagenase 3 of 7.5 nM.

For the molecule `CCOCCC1(Oc2ccc(Oc3ccc(C(=O)NCc4ccccn4)cc3)cc2)C(=O)NC(=O)NC1=O`, the figures for the Selectivity ratio in the test filed under Homo sapiens [1] and in the test filed under Homo sapiens [3] were 17 and 30, respectively. Also, the concentration for half-maximal inhibition (IC50) against Collagenase 3 worked out at 6.1 nM.

As to `CCOCCC1(Oc2ccc(Oc3ccc(-c4cnc(-c5ccccc5)o4)cc3)cc2)C(=O)NC(=O)NC1=O`, the Selectivity ratio in the test listed under Homo sapiens [1] stood at 165; in the test filed under Homo sapiens [2], 212; in the test filed under Homo sapiens [3], 309. The molecule also registered an IC50 against Collagenase 3 of 1.7 nM.

As to `CCOCCC1(Oc2ccc(Oc3ccc(-c4nc(-c5ccccc5)no4)cc3)cc2)C(=O)NC(=O)NC1=O`, the results for the Selectivity ratio in the test filed under Homo sapiens [1], in the test listed under Homo sapiens [2] and in the test filed under Homo sapiens [3] were 54, 208 and 138, respectively. Besides, the half-inhibitory concentration (IC50) against Collagenase 3 amounted to 3.4 nM.

Take `CCOCCC1(Oc2ccc(Oc3ccc(-c4nc(-c5cccc(C#N)c5)co4)cc3)cc2)C(=O)NC(=O)NC1=O`: the figures for the Selectivity ratio in the test filed under Homo sapiens [1], in the test listed under Homo sapiens [2] and in the test filed under Homo sapiens [3] were 58, 155 and 134, respectively. At Collagenase 3, this molecule displayed an IC50 of 0.53 nM.

On to `CCOCCC1(Oc2ccc(Oc3ccc(C(=O)Nc4ccccn4)cc3)cc2)C(=O)NC(=O)NC1=O`, for which the Selectivity ratio in the test listed under Homo sapiens [1] was 27; in the test filed under Homo sapiens [2], 15; in the test listed under Homo sapiens [3], 27. The same molecule yielded a concentration for half-maximal inhibition (IC50) against Collagenase 3 of 3.9 nM.

On to `CCOCCC1(Oc2ccc(Oc3ccc(-c4nc(-c5ccccn5)co4)cc3)cc2)C(=O)NC(=O)NC1=O`, for which the Selectivity ratio in the test filed under Homo sapiens [1] turned out to be 74; in the test listed under Homo sapiens [2], 57; in the test filed under Homo sapiens [3], 158. The molecule also had an IC50 at Collagenase 3 of 1 nM.

As for `CCOCCC1(Oc2ccc(Oc3ccc(-c4nc(-c5cccnc5)co4)cc3)cc2)C(=O)NC(=O)NC1=O`, the figures for the Selectivity ratio in the test listed under Homo sapiens [1], in the test listed under Homo sapiens [2] and in the test listed under Homo sapiens [3] were 38, 265 and 124, respectively. Moreover, at Collagenase 3, the IC50 stood at 0.34 nM.

As for `CCOCCC1(Oc2ccc(Oc3ccc(-c4nnc(-c5ccccc5)o4)cc3)cc2)C(=O)NC(=O)NC1=O`, the results for the Selectivity ratio in the test listed under Homo sapiens [1], in the test listed under Homo sapiens [2] and in the test filed under Homo sapiens [3] were 66, 98 and 126, respectively. This molecule also had an IC50 against Collagenase 3 of 12 nM.

For the molecule `CCOCCC1(Oc2ccc(Oc3ccc(-c4nc(-c5ccccc5)co4)cc3)cc2)C(=O)NC(=O)NC1=O`, the Selectivity ratio in the test listed under Homo sapiens [1] came out at 58; in the test filed under Homo sapiens [2], 115; in the test filed under Homo sapiens [3], 259. The molecule further returned an IC50 against Collagenase 3 of 2.4 nM.

Regarding `CCOCCC1(Oc2ccc(Oc3ccc(C(=O)Nc4cccnc4)cc3)cc2)C(=O)NC(=O)NC1=O`, the Selectivity ratio in the test listed under Homo sapiens [1] is 63; in the test filed under Homo sapiens [2] it was 120; in the test listed under Homo sapiens [3], 190. The 50% inhibitory concentration (IC50) at Collagenase 3 was 0.4 nM.

As to `COCCC1(Oc2ccc(Oc3ccc(-c4nc(-c5ccc(F)cc5)co4)cc3)cc2)C(=O)NC(=O)NC1=O`, the Selectivity ratio is 356 in the test filed under Homo sapiens [1], 338 in the test listed under Homo sapiens [2] and 960 in the test filed under Homo sapiens [3]. For the same molecule, the IC50 on Collagenase 3 is 0.57 nM.

For the molecule `CCOCCC1(Oc2ccc(Oc3ccc(C(=O)NCc4ccc(F)cc4)cc3)cc2)C(=O)NC(=O)NC1=O`, the Selectivity ratio in the test filed under Homo sapiens [1] turned out to be 17; in the test filed under Homo sapiens [3] it was 11. This molecule also had an IC50 at Collagenase 3 of 3.4 nM.
